{
  "source": "paper PMC9455918",
  "about": "“Quinolizidines as Novel SARS-CoV-2 Entry Inhibitors” (International Journal of Molecular Sciences, 2022)",
  "key": {"[1]": {"test_system": "D614G spike-pseudotyped virus", "format": "cell-based, SARS-CoV-2"}, "[2]": {"test_system": "Omicron BA.1 spike-pseudotyped virus", "experiment": "microbe, parasite or virus in culture", "format": "cell-based, SARS-CoV-2"}, "[3]": {"conditions": "293T-ACE2 cells, 3 days, luciferase reporter, mean ± SD of three tests, Inactive = CC50/IC50 ratio < 5"}},
  "note": "“And” between values parts separate entries of the source, which are not always exact repeats. Equal values may be shown once. Read-outs that look alike come from different tables or passages of the source.",
  "data": [
    {"smiles": "C1=C2CCCN[C@H]2[C@@H]2C[C@H]1[C@H]1CCCCN1C2", "note": "[Aloperine, aloperine, reference compound]", "values": [
      {"measurement": "IC50", "setting": "[1]", "result": "11500 ± 2300", "unit": "nM"}
    ]},
    {"smiles": "CCN(CC)CCCC(C)Nc1ccnc2cc(Cl)ccc12", "note": "(centres unmarked) [Chloroquine diphosphate, reference compound]", "values": [
      {"measurement": "IC50", "setting": "[1]", "result": "2300 ± 3600", "unit": "nM"}
    ]},
    {"smiles": "O=C(NCCCCCCN1CCCC2CC3CC(CN4CCCCC34)C21)c1c(F)cc(Br)cc1F", "note": "(centres unmarked) [Compound 1]", "values": [
      {"measurement": "IC50", "setting": "[1]", "result": "4700 ± 760", "unit": "nM"}
    ]},
    {"smiles": "O=C(NCCN1CCCC2=CC3CC(CN4CCCCC34)C21)c1ccccc1F", "note": "(centres unmarked) [Compound 2]", "values": [
      {"measurement": "IC50, D614G spike-pseudotyped virus", "setting": "[1]", "result": "Inactive ^8"}
    ]},
    {"smiles": "O=C(Cc1ccc(S(=O)(=O)C(F)(F)F)cc1)NCCCCN1CCCC2=CC3CC(CN4CCCCC34)C21", "note": "(centres unmarked) [Compound 3]", "values": [
      {"measurement": "IC50", "setting": "[1]", "result": "3800 ± 680", "unit": "nM"}
    ]},
    {"smiles": "C1=C2CCCN(CCCCCNCc3ccccc3)C2C2CC1C1CCCCN1C2", "note": "(centres unmarked) [Compound 4]", "values": [
      {"measurement": "IC50", "setting": "[1]", "result": "860 ± 1500", "unit": "nM"},
      {"measurement": "IC50, D614G spike-pseudotyped virus", "setting": "[1]; [3]", "result": "sub-µM potency"}
    ]},
    {"smiles": "C1=C2CCCN(CCCCNCc3ccccc3)C2C2CC1C1CCCCN1C2", "note": "(centres unmarked) [Compound 5]", "values": [
      {"measurement": "Fold more potent than aloperine against D614G spike-pseudotyped virus", "setting": "[1]", "result": "approximately 22 fold"},
      {"measurement": "Fold more potent than chloroquine against D614G spike-pseudotyped virus", "setting": "[1]", "result": "~5", "unit": "fold"},
      {"measurement": "IC50", "setting": "[1]", "result": "500 nM and 530 nM"},
      {"measurement": "IC50, D614G spike-pseudotyped virus", "setting": "[1]; [3]", "result": "sub-µM potency"},
      {"measurement": "Fold less sensitive, Omicron variants", "setting": "[2]", "result": "approximately 1.5 fold"},
      {"measurement": "IC50", "setting": "[2]; Severe acute respiratory syndrome coronavirus 2, 293T/ACE2, read-out: IC50, Omicron BA.1 spike-pseudotyped virus", "result": "760 ± 220", "unit": "nM"}
    ]},
    {"smiles": "COc1ccc(C(=O)NCCCCN2CCCC3=CC4CC(CN5CCCCC45)C32)cc1", "note": "(centres unmarked) [Compound 6]", "values": [
      {"measurement": "IC50", "setting": "[1]", "result": "11900 ± 2100", "unit": "nM"}
    ]},
    {"smiles": "CC(C)(C)c1ccc(C(=O)NCCCCCCN2CCCC3=CC4CC(CN5CCCCC45)C32)cc1", "note": "(centres unmarked) [Compound 7]", "values": [
      {"measurement": "IC50", "setting": "[1]", "result": "3700 ± 870", "unit": "nM"}
    ]},
    {"smiles": "O=C(NCCCCCCCC(=O)N1CCCC2=CC3CC(CN4CCCCC34)C21)c1ccc(OC(F)(F)F)cc1", "note": "(centres unmarked) [Compound 8]", "values": [
      {"measurement": "IC50", "setting": "[1]", "result": "17500 ± 2300", "unit": "nM"},
      {"measurement": "IC50, D614G spike-pseudotyped virus", "setting": "[1]; [3]", "result": "weak inhibitor"}
    ]},
    {"smiles": "Fc1ccc(CNCCCCN2CCCC3=CC4CC(CN5CCCCC45)C32)cc1", "note": "(centres unmarked) [Compound 9]", "values": [
      {"measurement": "IC50", "setting": "[1]", "result": "610 ± 180", "unit": "nM"}
    ]},
    {"smiles": "CCOC(=O)[C@H]1O[C@@H]1C(=O)N[C@@H](CC(C)C)C(=O)NCCC(C)C", "note": "[Compound E64D, E64D, reference compound]", "values": [
      {"measurement": "IC50", "setting": "[1]; [3]", "result": "480 ± 110", "unit": "nM"},
      {"measurement": "IC50", "setting": "[2]; read-out: IC50, Omicron BA.1 spike-pseudotyped virus", "result": "360 ± 76", "unit": "nM"}
    ]}
  ]
}
